The values below come from PubChem BioAssay AID270 (DTP/NCI, 2004).

The test system of the experiment is BDF1 mice, s.c. Lewis lung carcinoma, T/C %. The experiment is described as follows: NCI In Vivo Anticancer Drug Screen. Data for tumor model Lewis Lung Carcinoma (subcutaneous) in B6D2F1 (BDF1) mice. Put shortly:
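Transplanted tumors grown in mice; compound vs vehicle dosing; endpoint survival or tumor size; ratio T/C.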

Each structure is given as a SMILES string. “And” between values parts separate entries of the source, which are not always exact repeats. Equal entries are not always repeated. Records with an inconclusive call do not appear.

Consider `S=c1nc[nH]c2nc[nH]c12`, for which the T/C is, setting by setting: (endpoint: mean tumor weight, dose: 5.0 mg/kg/injection, schedule: Q01DX011 (ip), vehicle: alkali diluted with saline, higher = larger tumour) 58 % of control; (endpoint: mean tumor weight, dose: 10.0 mg/kg/injection, schedule: Q01DX011 (ip), vehicle: alkali diluted with saline, higher = larger tumour) 60 % of control; (endpoint: mean tumor weight, dose: 12.5 mg/kg/injection, schedule: Q01DX011 (ip), vehicle: alkali diluted with saline, higher = larger tumour) 62 % of control; (endpoint: mean tumor weight, dose: 20.0 mg/kg/injection, schedule: Q01DX011 (ip), vehicle: alkali diluted with saline, higher = larger tumour) 51 % of control; (endpoint: mean tumor weight, dose: 25.0 mg/kg/injection, schedule: Q01DX011 (ip), vehicle: alkali diluted with saline, higher = larger tumour) 66 % of control; (endpoint: mean tumor weight, dose: 50.0 mg/kg/injection, schedule: Q01DX011 (ip), vehicle: alkali diluted with saline, higher = larger tumour) 62 % of control. The T/C reads like this: (endpoint: median survival time, dose: 0.3 mg/kg/injection, schedule: Q01DX000 (ip), vehicle: alkali diluted with saline, higher = longer survival) 106 % of control; (endpoint: median survival time, dose: 1.0 mg/kg/injection, schedule: Q01DX009 (ip), vehicle: saline, higher = longer survival) 106 % of control; (endpoint: median survival time, dose: 2.0 mg/kg/injection, schedule: Q01DX009 (ip), vehicle: saline, higher = longer survival) 121 % of control; (endpoint: median survival time, dose: 3.0 mg/kg/injection, schedule: Q01DX000 (ip), vehicle: alkali diluted with saline, higher = longer survival) 101 % of control; (endpoint: median survival time, dose: 4.0 mg/kg/injection, schedule: Q01DX009 (ip), vehicle: saline, higher = longer survival) 117 % of control; (endpoint: median survival time, dose: 8.0 mg/kg/injection, schedule: Q01DX009 (ip), vehicle: saline, higher = longer survival) 121 % of control. The T/C by setting is: (endpoint: median survival time, dose: 10.0 mg/kg/injection, schedule: Q01DX011 (ip), vehicle: alkali diluted with saline, higher = longer survival) 98 % of control; (endpoint: median survival time, dose: 15.0 mg/kg/injection, schedule: Q01DX009 (ip), vehicle: saline with Tween-80, higher = longer survival) 108 % of control; (endpoint: median survival time, dose: 20.0 mg/kg/injection, schedule: Q01DX011 (ip), vehicle: alkali diluted with saline, higher = longer survival) 91 % of control; (endpoint: median survival time, dose: 30.0 mg/kg/injection, schedule: Q01DX000 (ip), vehicle: alkali diluted with saline, higher = longer survival) 97 % of control; (endpoint: median survival time, dose: 30.0 mg/kg/injection, schedule: Q01DX009 (ip), vehicle: Klucel (hydroxypropylcellulose) (HPC), higher = longer survival) 104 % of control; (endpoint: median survival time, dose: 40.0 mg/kg/injection, schedule: Q01DX011 (ip), vehicle: alkali diluted with saline, higher = longer survival) 89 % of control. For the same compound, the T/C is 79 % of control (endpoint: median tumor weight (est.), dose: 15.0 mg/kg/injection, schedule: Q01DX009 (ip), vehicle: saline with Tween-80, higher = larger tumour); 72 % of control (endpoint: median tumor weight (est.), dose: 30.0 mg/kg/injection, schedule: Q01DX009 (ip), vehicle: saline with Tween-80, higher = larger tumour); 44 % of control (endpoint: median tumor weight (est.), dose: 35.0 mg/kg/injection, schedule: Q01DX011 (ip), vehicle: alkali diluted with saline, higher = larger tumour); 38 % of control (endpoint: median tumor weight (est.), dose: 51.0 mg/kg/injection, schedule: Q01DX011 (ip), vehicle: alkali diluted with saline, higher = larger tumour); 70 % of control and 75 % of control and 93 % of control (endpoint: median tumor weight (est.), dose: 80.0 mg/kg/injection, schedule: Q01DX011 (ip), vehicle: alkali diluted with saline, higher = larger tumour).
`OCc1ccccc1OC1OC(CO)C(O)C(O)C1O` (stereo unspecified): the T/C by setting is: (endpoint: mean tumor weight, dose: 100.0 mg/kg/injection, schedule: Q01DX011 (ip), vehicle: carboxymethylcellulose (CMC), higher = larger tumour) 106 % of control; (endpoint: mean tumor weight, dose: 200.0 mg/kg/injection, schedule: Q01DX011 (ip), vehicle: carboxymethylcellulose (CMC), higher = larger tumour) 86 % of control; (endpoint: mean tumor weight, dose: 400.0 mg/kg/injection, schedule: Q01DX011 (ip), vehicle: carboxymethylcellulose (CMC), higher = larger tumour) 100 % of control.
Take `O=C1c2ccccc2CCc2ccccc21`: the T/C reads like this: (endpoint: mean tumor weight, dose: 133.0 mg/kg/injection, schedule: Q01DX011 (ip), vehicle: other, higher = larger tumour) 91 % of control; (endpoint: mean tumor weight, dose: 200.0 mg/kg/injection, schedule: Q01DX011 (ip), vehicle: other, higher = larger tumour) 173 % of control; (endpoint: mean tumor weight, dose: 450.0 mg/kg/injection, schedule: Q01DX011 (ip), vehicle: other, higher = larger tumour) 74 % of control.
Take `CS(=O)(=O)OCC(=O)NCCNC(=O)COS(C)(=O)=O`: the T/C (endpoint: mean tumor weight, dose: 25.0 mg/kg/injection, schedule: Q01DX011 (ip), vehicle: saline, higher = larger tumour) was 98 % of control; the T/C (endpoint: mean tumor weight, dose: 50.0 mg/kg/injection, schedule: Q01DX011 (ip), vehicle: saline, higher = larger tumour) was 90 % of control; the T/C (endpoint: mean tumor weight, dose: 100.0 mg/kg/injection, schedule: Q01DX011 (ip), vehicle: saline, higher = larger tumour) was 94 % of control; the T/C (endpoint: mean tumor weight, dose: 200.0 mg/kg/injection, schedule: Q01DX011 (ip), vehicle: saline, higher = larger tumour) was 82 % of control.
As to `Nc1nc(=S)c2[nH]cnc2[nH]1`, the T/C by setting is: (endpoint: median survival time, dose: 0.5 mg/kg/injection, schedule: Q01DX009 (ip), vehicle: Klucel (hydroxypropylcellulose) (HPC), higher = longer survival) 108 % of control; (endpoint: median survival time, dose: 1.0 mg/kg/injection, schedule: Q01DX009 (ip), vehicle: Klucel (hydroxypropylcellulose) (HPC), higher = longer survival) 117 % of control; (endpoint: median tumor weight (est.), dose: 0.67 mg/kg/injection, schedule: Q01DX011 (ip), vehicle: alkali diluted with saline, higher = larger tumour) 80 % of control; (endpoint: median tumor weight (est.), dose: 1.0 mg/kg/injection, schedule: Q01DX011 (ip), vehicle: alkali diluted with saline, higher = larger tumour) 24 % of control.
With `O=C(NC(Cc1ccccc1)C(=O)CCl)OCc1ccccc1` (stereo unspecified), the T/C (endpoint: median survival time, dose: 3.12 mg/kg/injection, schedule: Q01DX009 (ip), vehicle: saline with Tween-80, higher = longer survival) is 107 % of control; the T/C (endpoint: median survival time, dose: 6.25 mg/kg/injection, schedule: Q01DX009 (ip), vehicle: saline with Tween-80, higher = longer survival) is 87 % of control; the T/C (endpoint: median survival time, dose: 12.5 mg/kg/injection, schedule: Q01DX009 (ip), vehicle: saline with Tween-80, higher = longer survival) is 94 % of control.
`NC(=O)c1ncn(C2OC(CO)C(O)C2O)n1` (stereo unspecified): the T/C (endpoint: median survival time, dose: 20.0 mg/kg/injection, schedule: Q01DX009 (ip), vehicle: saline, higher = longer survival) is 100 % of control; the T/C (endpoint: median survival time, dose: 40.0 mg/kg/injection, schedule: Q01DX009 (ip), vehicle: saline, higher = longer survival) was 93 % of control and 107 % of control; the T/C (endpoint: median survival time, dose: 80.0 mg/kg/injection, schedule: Q01DX009 (ip), vehicle: saline, higher = longer survival) was 97 % of control and 107 % of control; the T/C (endpoint: median survival time, dose: 160.0 mg/kg/injection, schedule: Q01DX009 (ip), vehicle: saline, higher = longer survival) was 118 % of control.
With `NC(=O)c1[nH]nc(C2OC(CO)C(O)C2O)c1O` (stereo unspecified), the T/C (endpoint: median survival time, dose: 1.73 mg/kg/injection, schedule: Q04DX003 (iv), vehicle: saline, higher = longer survival) is 191 % of control; the T/C (endpoint: median survival time, dose: 5.2 mg/kg/injection, schedule: Q04DX003 (iv), vehicle: saline, higher = longer survival) is 117 % of control; the T/C (endpoint: median survival time, dose: 15.6 mg/kg/injection, schedule: Q04DX003 (iv), vehicle: saline, higher = longer survival) was 69 % of control.
As for `CCCCn1cnc2c(=S)nc[nH]c21`, the T/C is 49 % of control (endpoint: mean tumor weight, dose: 15.0 mg/kg/injection, schedule: Q01DX011 (ip), vehicle: water, higher = larger tumour); 60 % of control (endpoint: mean tumor weight, dose: 30.0 mg/kg/injection, schedule: Q01DX011 (ip), vehicle: water, higher = larger tumour); 53 % of control (endpoint: mean tumor weight, dose: 60.0 mg/kg/injection, schedule: Q01DX011 (ip), vehicle: water, higher = larger tumour).
On to `O=C(O)O.[Cd]`, for which the T/C (endpoint: mean tumor weight, dose: 0.5 mg/kg/injection, schedule: Q01DX011 (ip), vehicle: carboxymethylcellulose (CMC), higher = larger tumour) was 72 % of control.
